The text below walks through data of BindingDB's records for doi:10.1021/acs.jnatprod.1c00014 (Jiangsu University of Science and Technology, 2021).

pIC50: −log10 of the molar value.

The test deals with Maltase-glucoamylase (Homo sapiens, UniProt O43451). Description: Inhibition of alpha-glucosidase (unknown origin) preincubated for 5 mins followed by addition of pNPG substrate and measured after 30 mins by spectrophotometric method.
Maltase-glucoamylase, sequence (O43451 whole entry): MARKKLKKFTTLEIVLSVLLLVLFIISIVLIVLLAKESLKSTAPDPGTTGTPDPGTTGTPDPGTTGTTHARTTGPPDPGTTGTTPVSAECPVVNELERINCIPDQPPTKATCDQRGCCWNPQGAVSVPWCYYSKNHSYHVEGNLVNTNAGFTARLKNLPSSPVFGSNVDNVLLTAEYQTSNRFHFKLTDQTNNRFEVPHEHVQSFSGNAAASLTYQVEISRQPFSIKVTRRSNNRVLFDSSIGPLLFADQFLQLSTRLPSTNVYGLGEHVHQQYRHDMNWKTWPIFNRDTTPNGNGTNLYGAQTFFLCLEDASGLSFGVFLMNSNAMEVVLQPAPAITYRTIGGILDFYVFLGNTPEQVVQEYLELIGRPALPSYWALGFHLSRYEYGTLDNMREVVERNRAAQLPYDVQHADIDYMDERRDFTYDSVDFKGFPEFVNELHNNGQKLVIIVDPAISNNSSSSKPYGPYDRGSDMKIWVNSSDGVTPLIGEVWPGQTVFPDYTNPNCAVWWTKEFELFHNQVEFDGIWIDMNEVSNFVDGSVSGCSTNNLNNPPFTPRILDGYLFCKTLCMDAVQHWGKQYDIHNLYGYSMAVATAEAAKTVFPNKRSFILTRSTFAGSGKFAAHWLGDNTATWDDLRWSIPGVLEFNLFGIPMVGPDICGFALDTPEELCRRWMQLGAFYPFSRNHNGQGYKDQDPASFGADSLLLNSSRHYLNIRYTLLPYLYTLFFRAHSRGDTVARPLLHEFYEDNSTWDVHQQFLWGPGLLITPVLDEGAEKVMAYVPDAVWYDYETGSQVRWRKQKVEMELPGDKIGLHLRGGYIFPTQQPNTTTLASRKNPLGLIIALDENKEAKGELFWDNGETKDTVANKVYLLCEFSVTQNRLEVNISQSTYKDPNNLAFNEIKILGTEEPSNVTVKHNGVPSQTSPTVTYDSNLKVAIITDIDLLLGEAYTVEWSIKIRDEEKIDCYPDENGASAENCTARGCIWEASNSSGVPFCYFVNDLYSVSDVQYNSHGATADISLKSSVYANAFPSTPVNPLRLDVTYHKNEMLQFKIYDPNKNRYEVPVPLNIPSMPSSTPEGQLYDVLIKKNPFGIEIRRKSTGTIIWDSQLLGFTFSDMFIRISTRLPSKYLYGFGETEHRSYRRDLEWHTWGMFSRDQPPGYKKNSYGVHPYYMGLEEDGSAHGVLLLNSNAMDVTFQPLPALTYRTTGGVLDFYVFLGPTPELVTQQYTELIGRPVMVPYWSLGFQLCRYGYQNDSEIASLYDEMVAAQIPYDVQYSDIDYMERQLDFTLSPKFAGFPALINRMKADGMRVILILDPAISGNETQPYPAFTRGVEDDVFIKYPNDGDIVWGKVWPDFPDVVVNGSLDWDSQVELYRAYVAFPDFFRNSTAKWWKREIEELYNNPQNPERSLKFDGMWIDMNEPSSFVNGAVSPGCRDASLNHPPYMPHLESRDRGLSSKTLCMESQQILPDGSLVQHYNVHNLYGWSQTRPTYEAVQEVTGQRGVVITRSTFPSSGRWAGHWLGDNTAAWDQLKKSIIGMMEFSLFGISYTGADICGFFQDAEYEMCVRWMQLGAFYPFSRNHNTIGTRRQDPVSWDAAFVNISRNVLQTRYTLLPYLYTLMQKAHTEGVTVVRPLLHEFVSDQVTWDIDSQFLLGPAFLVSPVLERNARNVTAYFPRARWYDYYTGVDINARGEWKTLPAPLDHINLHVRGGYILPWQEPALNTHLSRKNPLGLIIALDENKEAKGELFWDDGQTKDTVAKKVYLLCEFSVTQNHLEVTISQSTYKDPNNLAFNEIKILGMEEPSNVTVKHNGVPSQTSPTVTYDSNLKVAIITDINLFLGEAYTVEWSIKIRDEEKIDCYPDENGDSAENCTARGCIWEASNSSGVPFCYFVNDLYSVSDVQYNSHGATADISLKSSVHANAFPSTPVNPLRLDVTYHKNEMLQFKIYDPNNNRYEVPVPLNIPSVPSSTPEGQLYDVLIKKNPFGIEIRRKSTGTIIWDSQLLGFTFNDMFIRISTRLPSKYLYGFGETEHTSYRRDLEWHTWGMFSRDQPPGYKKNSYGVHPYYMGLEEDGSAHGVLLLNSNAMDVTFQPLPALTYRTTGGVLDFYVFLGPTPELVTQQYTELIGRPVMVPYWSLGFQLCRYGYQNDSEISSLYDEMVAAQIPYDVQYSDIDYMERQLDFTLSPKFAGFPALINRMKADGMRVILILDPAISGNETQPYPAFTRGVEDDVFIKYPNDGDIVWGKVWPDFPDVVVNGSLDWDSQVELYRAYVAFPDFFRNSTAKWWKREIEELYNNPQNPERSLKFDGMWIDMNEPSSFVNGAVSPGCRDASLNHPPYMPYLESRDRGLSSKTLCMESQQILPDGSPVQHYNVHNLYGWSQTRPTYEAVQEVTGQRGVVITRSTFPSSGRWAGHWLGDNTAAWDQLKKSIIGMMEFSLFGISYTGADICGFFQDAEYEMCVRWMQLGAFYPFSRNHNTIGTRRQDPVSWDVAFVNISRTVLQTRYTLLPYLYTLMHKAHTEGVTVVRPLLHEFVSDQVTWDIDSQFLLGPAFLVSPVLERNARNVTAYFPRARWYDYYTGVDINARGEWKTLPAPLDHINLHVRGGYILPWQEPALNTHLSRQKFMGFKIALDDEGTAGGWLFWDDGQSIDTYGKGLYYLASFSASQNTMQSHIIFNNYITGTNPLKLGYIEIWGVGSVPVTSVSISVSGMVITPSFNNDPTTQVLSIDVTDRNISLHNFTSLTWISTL
For `COc1ccc(-c2oc3cc(OC)cc(OC)c3c(=O)c2OCCCCCN2C[C@H](O)[C@@H](O)[C@H](O)[C@H]2CO)cc1`, the pIC50 is 4.39.
As for `COc1ccc(-c2oc3cc(OC)cc(OC)c3c(=O)c2OCCCCCCCCN2C[C@H](O)[C@@H](O)[C@H](O)[C@H]2CO)cc1`, the pIC50 is 5.75.
Next, `COc1ccc(-c2oc3cc(OC)cc(OC)c3c(=O)c2OCCCCCCCCCCCN2C[C@H](O)[C@@H](O)[C@H](O)[C@H]2CO)cc1`: 6.62.

By pIC50 is commonly meant −log10 of the IC50, conventionally taken in molar units. A low value points to a large IC50.
